Structures are written as SMILES. Counter-ions that a name gives are not always drawn. Like-named read-outs stand apart in the source and are kept apart here.

This test has as its target TPK enzyme (Homo sapiens (Human), UniProt Q9H3S4). In words: TPK enzyme activity test. In kind it is biochemical. Conditions: for Emax: calculated with the effect of DMSO on TPK enzyme activity as 100%; for EC50: promoting effect on TPK enzyme activity.

Sequence of TPK enzyme (Q9H3S4 whole entry): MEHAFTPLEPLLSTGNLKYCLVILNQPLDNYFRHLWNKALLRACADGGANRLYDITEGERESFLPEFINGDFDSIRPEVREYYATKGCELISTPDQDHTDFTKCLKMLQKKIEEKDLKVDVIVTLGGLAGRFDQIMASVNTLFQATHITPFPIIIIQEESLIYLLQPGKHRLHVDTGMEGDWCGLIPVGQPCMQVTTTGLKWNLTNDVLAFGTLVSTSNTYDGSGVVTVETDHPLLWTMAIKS

Molecule `Cc1ccc2[nH]c3c(=O)n(CCCCN4CCN(c5cccc(C(F)(F)F)c5)CC4)cnc3c2c1` [Formate salt of 48, 8-methyl-3-(4-(4-(3-(trifluoromethyl)phenyl)piperazin-1-yl)butyl)-3,5-dihydro-4H-pyrimido[5,4-b]indol-4-one] came in with a concentration for a half-maximal effect (EC50) of 1.06 µM. Besides, the maximum response (Emax) (read-out: Emax) is 210%.

`COC(=O)C1CCCCN1CCCN1c2ccccc2Sc2ccccc21` (centres unmarked) [Formate salt of 191, methyl 1-(3-(10H-phenothiazin-10-yl)propyl)piperidin-2-carboxylate]: the 50% effective concentration (EC50) is 5.6 µM. Also, the Emax (read-out: Emax) is 131%.

Turning to `O=c1c2c(ncn1CCCN1CCN(c3cccc(Cl)c3Cl)CC1)-c1ccccc1CCC2` [Formate salt of 222, 3-(3-(4-(2,3-dichlorophenyl)piperazin-1-yl)propyl)-3,5,6,7-tetrahydro-4H-benzo[6,7]cyclohepta[1,2-d]pyrimidin-4-one Formate], the maximum response (Emax) is 143% and the concentration giving a half-maximal response (EC50) was 0.5 µM.

As to `Cc1ccc2c(c1)N1CCCC(C(=O)NCCCN3CCN(c4cccc(C(F)(F)F)c4)CC3)C1CO2` (centres unmarked) [Formate salt of 232, 2-methyl-N-(3-(4-(3-trifluoromethylphenyl)piperazin-1-yl)propyl)-6,6a,7,8,9,10-hexahydrobenzo[b]pyrido[1,2-d][1,4]oxazine-7-carboxamide Formate], the maximum response (Emax) was 136% and the response was half-maximal at 1.81 µM (EC50).

The values above are taken from US20250388584A1, “TPK AGONIST AND METHOD FOR TREATING NEURODEGENERATIVE DISEASES USING SAME” (SHANGHAI RAISING PHARMACEUTICAL CO., LTD., priority 2022, published 2025).
